In patent publication US20240246940A1, “HETEROARYL DERIVATIVE COMPOUND AND USE THEREOF” (VORONOI INC., priority 2021, published 2024):
One block for each molecule: values may come before it.

Assays:
Format in all cases: cell-based
[1] = system: HaCaT cells (EGFR expressing cell line); test: HaCaT cell proliferation inhibitory activity (CellTiter-Glo, 72 hours); conditions: Homo sapiens
Method in brief: (§1)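 SK-BR-3 and BT-474 cells were plated at 5000/well 48 h ahead, and N-87 (5000) and HaCaT (3000) 24 h ahead. Compounds were tested at 11 DMSO-diluted concentrations: 0.2 nM–10 μM for SK-BR-3/BT-474, […]–5 μM for N-87 and 0.8 nM–45 μM for HaCaT. GI50 came from growth % versus control, in triplicate.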

[2] = system: BT-474 cells (HER2 overexpressing cell line); test: BT-474 cell proliferation inhibitory activity (CellTiter-Glo, 120 hours); conditions: Homo sapiens
Method in brief: as §1

[3] = system: SK-BR-3 cells (HER2 overexpressing cell line); test: SK-BR-3 cell proliferation inhibitory activity (CellTiter-Glo, 120 hours); conditions: Homo sapiens
Method in brief: as §1

[4] = system: N-87 cells (HER2 overexpressing cell line); test: N-87 cell proliferation inhibitory activity (CellTiter-Glo, 72 hours)
Protocol: To evaluate the cell proliferation inhibitory activity of the compound according to the present invention on HER2 and EGFR kinases, the following method was performed using HER2 overexpressing cell lines (SK-BR-3, BT-474, and N-87) and EGFR expressing cell line (HaCaT).
McCOY'S 5A supplemented with 10% FBS was used for SK-BR-3 cells, RPMI-1640 medium supplemented with 20% FBS was used for BT-474 cancer cells, and RPMI-1640 medium supplemented with 10% FBS was used for N-87 cancer cells. DMEM supplemented with 10% FBS was used for HaCaT cells.
For SK-BR-3 cells, 5000 cells were aliquoted into each well of a white clear bottom 96 well plate (Corning) 48 hours before treatment with the compounds of Examples. For BT-474 cells, 5000 cells were aliquoted into each well of a white clear bottom 96 well plate (Corning) 48 hours before treatment with the compounds of Examples. For N-87 cells, 5000 cells were aliquoted into each well of a white clear bottom 96 well plate (Corning) 24 hours before treatment with the compounds of Examples. For HaCaT cells, 3000 cells were aliquoted into each well of a white clear bottom 96 well plate (Corning) 24 hours before treatment with the compounds of Examples. For SK-BR-3 cells and BT-474 cells, the compounds of Examples were diluted in dimethyl sulfoxide (three-fold dilution, a total of 11 concentrations) and injected each in an amount of 1 μl to a final concentration of 0.2 nM to 10 μM. For N-87 cells, the compounds of Examples were diluted in dimethyl sulfoxide (five-fold dilution, a total of 11 concentrations) and injected each in an amount of 0.5 μl to a final concentration of […] to 5 μM. For HaCaT cells, the compounds of Examples were diluted in dimethyl sulfoxide (three-fold dilution, a total of 11 concentrations) and injected each in an amount of 0.5 μl to a final concentration of 0.8 nM to 45 μM. For the measurement of living cells, the cells were stored at room temperature for 10 minutes using CellTiter-Glo cell viability reagent (Promega) after a certain period of time (SK-BR-3: 120 hours, BT-474: 120 hours, N-87: 72 hours, and HaCaT: 72 hours) post treatment with the compounds of Examples, and the luminescence intensity thereof was measured using a reader (SynergyNeo, Biotek). Each test was repeated three times.
The result values were calculated as a cell growth rate (%) compared to those of the control group. A graph was created using the GraphPad Prism version 5.0 program, and GI50 values were calculated.

SMILES: C=CC(=O)N1CCC(Nc2cc3c(Nc4cc(-c5ccc(F)cc5F)ccc4OC)ncnc3cc2OC)CC1 [Example 299, 1-(4-((4-((2′,4′-difluoro-4-methoxy-[1,1′-biphenyl]-3-yl)amino)-7-methoxyquinazolin-6-yl)amino)piperidin-1-yl)prop-2-en-1-one]
GI50 [1]: ≤ 150 nM
GI50 [2]: ≤ 150 nM
GI50 [3]: ≤ 150 nM
GI50 [4]: ≤ 150 nM

SMILES: C=CC(=O)N1CCC(Oc2cc3c(Nc4cc(-c5cccc(C(F)(F)F)c5F)ccc4OC)ncnc3cc2OC)CC1 [Example 138, 1-(4-((4-((2′-fluoro-4-methoxy-3′-(trifluoromethyl)-[1,1′-biphenyl]-3-yl)amino)-7-methoxy-quinazolin-6-yl)oxy)piperidin-1-yl)prop-2-en-1-one]
GI50 [1]: 150 to 1000 nM
GI50 [2]: ≤ 150 nM
GI50 [3]: ≤ 150 nM
GI50 [4]: ≤ 150 nM

SMILES: C=CC(=O)N1CC[C@H](Oc2cc3c(Nc4cc(-c5ccco5)ccc4OC)ncnc3cc2OC)[C@H](F)C1 (relative stereo) [Example 181, 1-(cis-3-fluoro-4-((4-((5-(furan-2-yl)-2-methoxyphenyl)amino)-7-methoxy-quinazolin-6-yl)oxy)piperidin-1-yl)prop-2-en-1-one]
GI50 [1]: ≤ 150 nM
GI50 [2]: ≤ 150 nM
GI50 [3]: ≤ 150 nM
GI50 [4]: ≤ 150 nM

SMILES: C=CC(=O)N1CCC(Oc2cc3c(Nc4cc(-c5cccc(C(F)(F)F)c5)ccc4OC)ncnc3cc2OC)CC1 [Example 139, 1-(4-((7-methoxy-4-((4-methoxy-3′-(trifluoromethyl)-[1,1′-biphenyl]-3-yl)amino)quinazolin-6-yl)oxy)piperidin-1-yl)prop-2-en-1-one]
GI50 [1]: 150 to 1000 nM
GI50 [2]: ≤ 150 nM
GI50 [3]: ≤ 150 nM
GI50 [4]: ≤ 150 nM

SMILES: C=CC(=O)N1CCC(F)(F)C(Oc2cc3c(Nc4cc(-c5ccco5)ccc4OC)ncnc3cc2OC)C1 (stereo not drawn) [Example 113, 1-(4,4-difluoro-3-((4-((5-(furan-2-yl)-2-methoxyphenyl)amino)-7-methoxy-quinazolin-6-yl)oxy)piperidin-1-yl)prop-2-en-1-one]
GI50 [1]: ≤ 150 nM
GI50 [2]: ≤ 150 nM
GI50 [3]: ≤ 150 nM
GI50 [4]: ≤ 150 nM

SMILES: C=CC(=O)N1CCC(Oc2cc3c(Nc4cc(-c5ccc(F)c(NC(C)=O)c5)ccc4OC)ncnc3cc2OC)CC1 [Example 226, N-(3′-((6-((1-acryloyl-piperidin-4-yl)oxy)-7-methoxy-quinazolin-4-yl)mino)-4-fluoro-4′-methoxy-[1,1'-biphenyl]-3-yl)acetamide]
GI50 [1]: > 1000 nM
GI50 [2]: ≤ 150 nM
GI50 [4]: ≤ 150 nM

SMILES: C=CC(=O)N1CCC(Oc2cc3c(Nc4cc(-c5cc(N)c(F)cc5F)ccc4OC)ncnc3cc2OC)CC1 [Example 170, 1-(4-((4-((5′-amino-2′,4′-difluoro-4-methoxy-[1,1′-biphenyl]-3-yl)amino)-7-methoxy-quinazolin-6-yl)oxy)piperidin-1-yl)prop-2-en-1-one]
GI50 [1]: ≤ 150 nM
GI50 [2]: ≤ 150 nM
GI50 [4]: ≤ 150 nM

SMILES: C=CC(=O)N1CCC(Oc2cc3c(Nc4cc(-c5ccc(F)c(N6CC(F)(F)C6)c5)ccc4OC)ncnc3cc2OC)CC1 [Example 129, 1-(4-((4-((3′-(3,3-difluoroazetidin-1-yl)-4′-fluoro-4-methoxy-[1,1′-biphenyl]-3-yl)amino)-7-methoxy-quinazolin-6-yl)oxy)piperidin-1-yl)prop-2-en-1-one]
GI50 [1]: 150 to 1000 nM
GI50 [2]: ≤ 150 nM
GI50 [4]: ≤ 150 nM

SMILES: C=CC(=O)N1CC[C@@H](Oc2cc3c(Nc4cc(-c5ccco5)ccc4OC)ncnc3cc2OC)[C@H](F)C1 [Example 173, 1-((3R,4R)-3-fluoro-4-((4-((5-(furan-2-yl)-2-methoxyphenyl)amino)-7-methoxy-quinazolin-6-yl)oxy)piperidin-1-yl)prop-2-en-1-one]
GI50 [1]: ≤ 150 nM
GI50 [2]: ≤ 150 nM
GI50 [4]: ≤ 150 nM

Continued, in another order:

GI50 [2]: ≤ 150 nM
GI50 [3]: ≤ 150 nM
SMILES: C=CC(=O)N1CCC(Oc2cc3c(Nc4cc(-c5ccsc5)ccc4OC)ncnc3cc2OC)CC1 [Example 79, 1-(4-((7-methoxy-4-((2-methoxy-5-(thiophen-3-yl)phenyl)amino)quinazolin-6-yl)oxy)piperidin-1-yl)prop-2-en-1-one]
GI50 [1]: ≤ 150 nM
GI50 [4]: ≤ 150 nM

GI50 [2]: ≤ 150 nM
GI50 [3]: ≤ 150 nM
SMILES: C=CC(=O)N1CCC(Oc2cc3c(Nc4cc(-c5cccc(N(C)C)c5)ccc4OC)ncnc3cc2OC)CC1 [Example 151, 1-(4-((4-((3′-(dimethylamino)-4-methoxy-[1,1′-biphenyl]-3-yl)amino)-7-methoxy-quinazolin-6-yl)oxy)piperidin-1-yl)prop-2-en-1-one]
GI50 [1]: 150 to 1000 nM
GI50 [4]: ≤ 150 nM

GI50 [2]: ≤ 150 nM
GI50 [3]: ≤ 150 nM
SMILES: C=CC(=O)N1CCC(Nc2cc3c(Nc4cc(-c5ccco5)ccc4OC)ncnc3cc2OC)CC1 [Example 298, 1-(4-((4-((5-(furan-2-yl)-2-methoxyphenyl)amino)-7-methoxyquinazolin-6-yl)amino)piperidin-1-yl)prop-2-en-1-one]
GI50 [1]: ≤ 150 nM
GI50 [4]: ≤ 150 nM

GI50 [2]: ≤ 150 nM
GI50 [3]: ≤ 150 nM
SMILES: C=CC(=O)N1CC[C@H](Oc2cc3c(Nc4cc(-c5ccc(F)cc5F)ccc4OC)ncnc3cc2OC)[C@H](F)C1 (relative stereo) [Example 182, 1-(cis-4-((4-((2′,4′-difluoro-4-methoxy-[1,1′-biphenyl]-3-yl)amino)-7-methoxy-quinazolin-6-yl)oxy)-3-fluoropiperidin-1-yl)prop-2-en-1-one]
GI50 [1]: ≤ 150 nM
GI50 [4]: ≤ 150 nM

GI50 [2]: ≤ 150 nM
SMILES: C=CC(=O)N1CCC(Oc2cc3c(Nc4cc(-c5ccc(F)c(N6CCC6)c5)ccc4OC)ncnc3cc2OC)CC1 [Example 159, 1-(4-((4-((3′-(azetidin-1-yl)-4′-fluoro-4-methoxy-[1,1′-biphenyl]-3-yl)amino)-7-methoxy-quinazolin-6-yl)oxy)piperidin-1-yl)prop-2-en-1-one]
GI50 [1]: 150 to 1000 nM
GI50 [4]: ≤ 150 nM

GI50 [2]: ≤ 150 nM
SMILES: C=CC(=O)N1CCC(Oc2cc3c(Nc4cc(-c5ccc(F)c(N(C)C)c5F)ccc4OC)ncnc3cc2OC)CC1 [Example 155, 1-(4-((4-((3′-(dimethylamino)-2′,4′-difluoro-4-methoxy-[1,1′-biphenyl]-3-yl)amino)-7-methoxy-quinazolin-6-yl)oxy)piperidin-1-yl)prop-2-en-1-one]
GI50 [1]: ≤ 150 nM
GI50 [4]: ≤ 150 nM

GI50 [2]: ≤ 150 nM
SMILES: C=CC(=O)N1CCC(Oc2cc3c(Nc4cc(-c5cc(C(F)(F)F)ccc5F)ccc4OC)ncnc3cc2OC)CC1 [Example 192, 1-(4-((4-((2′-fluoro-4-methoxy-5′-(trifluoromethyl)-[1,1′-biphenyl]-3-yl)amino)-7-methoxy-quinazolin-6-yl)oxy)piperidin-1-yl)prop-2-en-1-one]
GI50 [1]: ≤ 150 nM
GI50 [4]: ≤ 150 nM

GI50 [2]: ≤ 150 nM
SMILES: C=CC(=O)N1CCC(Oc2cc3c(Nc4cc(-c5ccc(F)c(NC(=O)C6CC6)c5)ccc4OC)ncnc3cc2OC)CC1 [Example 4, N-(3′-((6-((1-acryloylpiperidin-4-yl)oxy)-7-methoxy-quinazolin-4-yl)amino)-4-fluoro-4′-methoxy-[1,1'-biphenyl]-3-yl)cyclopropan-carboxamide]
GI50 [1]: > 1000 nM
GI50 [4]: ≤ 150 nM

GI50 [2]: ≤ 150 nM
SMILES: C=CC(=O)N1CCC(Oc2cc3c(Nc4cc(-c5c(F)cc(F)cc5F)ccc4OC)ncnc3cc2OC)CC1 [Example 190, 1-(4-((7-methoxy-4-((2′,4′,6′-trifluoro-4-methoxy-[1,1′-biphenyl]-3-yl)amino)quinazolin-6-yl)oxy)piperidin-1-yl)prop-2-en-1-one]
GI50 [1]: ≤ 150 nM
GI50 [4]: ≤ 150 nM
